Reference: US7388003B2, “Δ15-D-Homosteroids with androgenic action” (Bayer Schering Pharma AG, priority 2003, dated 2008)

Columns and labels:
Androgen Receptor [1] = target: T1, Androgen Receptor (Homo sapiens, UniProt P10275); experiment: Relative binding affinities (RBA) to the androgen receptor compared to testosterone and methyltrienolone; conditions: relative binding affinity to the androgen receptor; R 1881 (Methyltrienolone) = 100
T1 sequence (P10275 1-920): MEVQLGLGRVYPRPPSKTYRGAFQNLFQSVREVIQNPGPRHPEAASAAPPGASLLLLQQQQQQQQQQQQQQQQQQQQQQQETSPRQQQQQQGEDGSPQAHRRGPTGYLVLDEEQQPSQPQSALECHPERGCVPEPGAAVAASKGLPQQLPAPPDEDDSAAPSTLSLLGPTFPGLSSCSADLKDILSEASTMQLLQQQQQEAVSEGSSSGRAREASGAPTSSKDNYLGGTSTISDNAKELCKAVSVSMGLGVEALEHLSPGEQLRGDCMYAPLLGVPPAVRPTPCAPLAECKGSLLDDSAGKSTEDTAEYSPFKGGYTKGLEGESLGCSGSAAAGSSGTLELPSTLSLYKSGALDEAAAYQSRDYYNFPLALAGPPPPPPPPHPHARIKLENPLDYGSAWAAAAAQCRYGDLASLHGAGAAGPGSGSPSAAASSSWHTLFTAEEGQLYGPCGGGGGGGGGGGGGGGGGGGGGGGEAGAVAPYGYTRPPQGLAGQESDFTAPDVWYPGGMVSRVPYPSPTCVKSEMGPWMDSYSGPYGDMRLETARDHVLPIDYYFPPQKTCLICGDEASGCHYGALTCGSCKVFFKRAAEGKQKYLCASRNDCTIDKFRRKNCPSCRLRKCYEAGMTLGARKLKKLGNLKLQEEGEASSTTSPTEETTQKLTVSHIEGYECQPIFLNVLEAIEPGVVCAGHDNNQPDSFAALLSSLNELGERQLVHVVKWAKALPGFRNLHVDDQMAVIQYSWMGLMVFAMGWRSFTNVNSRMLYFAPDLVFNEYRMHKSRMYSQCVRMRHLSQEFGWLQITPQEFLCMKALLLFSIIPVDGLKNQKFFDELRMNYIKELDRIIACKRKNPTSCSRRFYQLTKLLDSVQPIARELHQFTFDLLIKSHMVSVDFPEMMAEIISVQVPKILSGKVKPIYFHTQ

Androgen Receptor [2] = target: T1, Androgen Receptor; experiment: Receptor binding affinity to the androgen receptor (reference DHT=100%)

| SMILES | RBA % (Androgen Receptor [1]) [%] | receptor binding affinity to the androgen receptor (Androgen Receptor [2]) [%] |
| --- | --- | --- |
| CC12CCC(=O)C=C1CCC1C2CCC2(C)C(O)CC=CC12 [Example 2, 17aβ-Hydroxy-D-homoandrost-4,15-dien-3-one] | 12 | – |
| C[C@]1(O)CC[C@H]2[C@@H]3CCC4=CC(=O)CCC4=C3C=C[C@@]21C [R 1881 (Methyltrienolone), Methyltrienolone] | 100 | – |
| CC1CC2=CC(=O)CCC2C2CCC3(C)C(O)C=CCC3C12 [17aβ-Hydroxy-7α-methyl-D-homoestra-4,16-dien-3-one] | – | 2 |
| CC12CCC3C4CCC(=O)C=C4CCC3C1C=CCC2O [Example 1, 17aβ-Hydroxy-D-homoestra-4,15-dien-3-one] | 25 | – |
